Data as given in patent US10717968B2, “Polymerases for nucleotide analogue incorporation” (Pacific Biosciences of California, Inc., priority 2005, dated 2020).

Columns and labels:
Assay type in all cases: biochemical
[1] = tested on: Alexa488-O-dA4P, FAM-Alexa532-O-dG4P, FAM-Alexa594-O-dT4P, Alexa633-O-dC4P; experiment: Screening: rate with set of four nucleotide analogues; settings: four analogues at 10 μM each, 1 mM MnCl2
A633dC4P = experiment: Screening: rate with A633dC4P and dA, dG, dTTP; settings: for Rate High: 25 μM A633dC4P with 20 μM dA; for Ratio (Low/High): (rate at 5 μM A633dC4P)/(rate at 25 μM A633dC4P), each with 20 μM dA, 1 mM MnCl2, higher ratio = lower Km
[2] = tested on: A488dA4P, A633dC4P, A546dG4P, A594dT4P; experiment: Assay with four terminally labeled nucleotide analogs; settings: four terminally labeled analogs all at 10 μM
Description: Polymerization rate (bases/min) with four analogues at 10 μM (A488dA4P, A633dC4P, A546dG4P and A594dT4P) and circular template (AGTC, a 72mer circular template largely consisting of a repeating AGTC motif) is determined.
The procedure is basically as described above in the section entitled “Assay with a single analogue at low concentration (10 μM) and three native nucleotides,” with the exception that in this assay all nucleotides are terminally labeled (A488dA4P, A633dC4P, A546dG4P, A594dT4P all at 10 μM). See, e.g., Table 2 Column I.

A568dC4P [3] = experiment: Nucleotide analogue concentration dependence of the polymerization rate, A568dC4P; settings: circular AGTC template; dTTP, dATP, dGTP 20 μM each
Description: (§1) The most promising polymerase mutants are characterized by determination of the polymerization rate and Km for A488dC4P and A568dC4P and a subset of natural nucleotides (dATP, dGTP and dTTP), using a circular template (AGTC). Velocity is measured at several different concentrations of the analogs, A488dC4P (a representative good substrate) and A568dC4P (a representative less preferred substrate).
(§2) The Φ29 DNA polymerase (parental enzyme or mutant) was preincubated with a DNA template (72 nucleotide circular DNA including mostly repetitive sequence AGTC) with annealed DNA primer. The preincubation mix includes also three native nucleotides (dTTP, dATP and dGTP 20 μM each) and various concentrations of the terminally labeled analogue (A488dC4P or A568dC4P). All subsequent steps were basically as described above in the section entitled “Assay with a single analogue at low concentration (10 μM) and three native nucleotides.” An average length of the DNA products generated with DNA polymerase at an individual analogue concentration was determined, and the results were fitted with the equation k=kel*[S]*(Kd+[S])^−1 where k is the observed polymerization rate, kel is the polymerization rate at saturating substrate concentration (kel measures incorporation of multiple residues), and [S] is substrate concentration. See, e.g., Table 2 Columns C, D, E, and F.

A488dC4P [4] = experiment: Nucleotide analogue concentration dependence of the polymerization rate, A488dC4P; settings: circular AGTC template; dTTP, dATP, dGTP 20 μM each
Description: as §1, §2

A568dC4P [5] = experiment: Assay with a single analogue at low concentration (10 μM) and three native nucleotides, A568dC4P; settings: single analogue at 10 μM and three native nucleotides
Description: (§3) The Φ29 DNA polymerase (parental enzyme or mutant) was preincubated with DNA template (72 nucleotide circular DNA including mostly repetitive sequence AGTC) with annealed DNA primer. The preincubation mix includes three native nucleotides (dTTP, dATP and dGTP) and a terminal labeled nucleotide analogue (A488dC4P or A568dC4P) at 10 μM concentration. After a short preincubation, the reaction was started with MnCl2. The reaction was stopped with EDTA, and the products were separated using agarose gel electrophoresis and stained with SYBR Gold (Invitrogen). The average length of the DNA generated with DNA polymerase was determined and used to estimate the polymerization rate. See, e.g., Table 2 Columns G and H.

dTTP, dATP, dGTP = experiment: Assay with three native nucleotides (dGTP, dTTP and dATP); settings: three native nucleotides at 20 μM; circular template, no G residues
Description: as §3
The Φ29 DNA polymerase (parental enzyme or mutant) was preincubated with DNA template (circular DNA including mostly repetitive sequence CAT, no G residues) with annealed DNA primer; the preincubation mix includes three native nucleotides (dTTP, dATP and dGTP). All subsequent steps were basically as described above in the section entitled “Assay with a single analogue at low concentration (10 μM) and three native nucleotides.” See, e.g., Table 2 Column B.

[6] = tested on: DNA template (72 nucleotide circular DNA) with annealed DNA primer; experiment: Processivity assay; settings: dNTP, MnCl2, heparin trap, 20 min; 1.0 minus Poff
From the text: The processivity (dissociation/kb) of the polymerase is estimated in a primer extension reaction performed in the presence of “Trap” (unlabeled competitor DNA or heparin). The processivity assay is designed to select mutants that retain the capability to synthesize a long DNA product in a continuous polymerization run (without polymerization reinitiation) with natural nucleotides. Mutants with a significant decrease in processivity are not selected for the next step.
The Φ29 DNA polymerase (parental enzyme or mutant) was preincubated with DNA template (72 nucleotide circular DNA including mostly repetitive sequence AGTC) with annealed DNA primer. After a short preincubation, the reaction was started with a starting mix including MnCl2, dNTP and heparin. Including the heparin in the reaction prevents polymerization from reinitiating after the polymerase dissociates from the template/primer, so that all generated DNA products are a result of continuous polymerization runs. After 20 min incubation, the reaction was stopped with EDTA and the products were separated using agarose gel electrophoresis and stained with SYBR Gold (Invitrogen). The DNA products were analyzed basically as described in Bibillo A, Eickbush T H. J Biol Chem. 2002 Sep. 20; 277(38):34836-45, Epub 2002 Jul. 5. The results were fitted with single exponential equation A*exp(−Poff*kb) where A is amplitude, Poff is the probability of premature polymerase dissociation, and kb is DNA length (1000 nucleotides). The probability of chain elongation (processivity) can be readily calculated by subtracting the Poff value from 1.0. See, e.g., Table 2 Column J.

A488dC4P [7] = experiment: Assay with a single analogue at low concentration (10 μM) and three native nucleotides, A488dC4P; settings: single analogue at 10 μM and three native nucleotides
Description: as §3

[8] = tested on: natural (native) nucleotides; experiment: Initial characterization: specific activity with natural (native) nucleotides
Description: The recombinant polymerase is initially evaluated on the quality of the protein preparation and basic catalytic activity. The polymerase's activity is analyzed with natural (native) nucleotides, and its specific activity (units/mg) is determined. Only catalytically competent mutants are selected for the next steps.

Alexa633-O-dC4P = experiment: Km and Vmax versus analogue Alexa633-O-dC4P; settings: Alexa633-O-dC4P (A633dC4P)
Description: Km and Vmax were determined for exemplary recombinant Phi29 polymerases and various nucleotide analogues.

| Substance | Hz Rate [1] [Hz] | Rate High (A633dC4P) | Ratio (Low/High) (A633dC4P) | A488dA4P, A633dC4P, A546dG4P, A594dT4P, V at 10 μM [2] | A568dC4P, kel (A568dC4P [3]) | Km (A568dC4P [3]) [µM] | A488dC4P, kel (A488dC4P [4]) [bp/min] | Km (A488dC4P [4]) [µM] | A568dC4P, V at 10 μM (A568dC4P [5]) | dTTP, dATP, dGTP (no G fork) V at 20 μM (dTTP, dATP, dGTP) | Processivity [6] [kb^−1] | A488dC4P, V at 10 μM (A488dC4P [7]) | Specific Activity [8] | Km (Alexa633-O-dC4P) [µM] |
| --- | --- | --- | --- | --- | --- | --- | --- | --- | --- | --- | --- | --- | --- | --- |
| D12A: GST-His tagged Phi29 polymerase with exonuclease-reducing D12A mutation, no background mutation [reference compound] | 1.2 | 55.3 | 0.888 | – | – | – | – | – | – | – | – | – | – | – |
| E375A: His-tagged Phi29 polymerase with E375A and background N62D mutation | 5.8 | 465.9 | 0.383 | – | – | – | – | – | – | – | – | – | – | – |
| E375Q: His-tagged Phi29 polymerase with E375Q and background N62D mutation | 6.3 | 531.6 | 0.356 | – | – | – | – | – | – | – | – | – | – | – |
| GST-N62D: GST-His-S tagged Phi 29 DNA polymerase with exonuclease-reducing N62D mutation (SEQ ID NO:2); parental enzyme [reference compound] | 2.8 | 349.3 | 0.355 | 65 | 1660 | 74 | 1200 | 20 | 236 | 780 | 0.9799 | 346 | – | – |
| His-E486A-N62D: His-tagged Phi 29 polymerase with E486A and N62D mutations (SEQ ID NOs:9, 30) | 1.0 | 152.5 | 0.441 | 15 | – | – | – | – | 118 | 1690 | 0.9875 | 303 | 4,133,000 units/mg | – |
| His-E486D-N62D: His-tagged Phi 29 polymerase with E486D and N62D mutations (SEQ ID NOs:10, 31) | 0.9 | 142.0 | 0.467 | 15 | – | – | – | – | 134 | – | 0.9885 | 220 | 11,634,000 units/mg | – |
| His-K135A-N62D: His-tagged Phi 29 polymerase with K135A and N62D mutations (SEQ ID NOs:3, 24) | 1.6 | 272.0 | 0.412 | 43 | – | – | 880 | 24 | 154 | 840 | 0.9801 | 292 | 12,454,000 units/mg | – |
| His-K512A-N62D: His-tagged Phi 29 polymerase with K512A and N62D mutations (SEQ ID NOs:11, 32) | 1.4 | 347.7 | 0.335 | 34 | – | – | – | – | 196 | – | 0.9821 | 359 | 16,073,000 units/mg | – |
| His-N62D: His-tagged N62D Phi 29 DNA polymerase; parental enzyme [reference compound] | 2.7 | 373.2 | 0.362 | 68 | – | – | 1020 | 21 | 237 | 750 | 0.9754 | 391 | – | – |
| His-NipTuck_1-N62D: His-tagged N62D Phi 29 polymerase with deletion of residues 505-525 (SEQ ID NOs:12, 33) | 1.3 | 192.4 | 0.508 | 24 | – | – | 520 | 24 | 116 | 660 | 0.9585 | 153 | 12,400,000 units/mg | – |
| L384R: His-tagged Phi29 polymerase with L384R and N62D mutations (SEQ ID NOs:8, 29) | −0 | 79.6 | 0.768 | – | – | – | – | – | – | – | – | – | – | – |
| N62D: E375K: Phi 29 polymerase with E375K and N62D mutations (SEQ ID NOs:6, 27) | 6.2 | 516.1 | 0.425 | – | – | – | – | – | – | – | – | – | – | 12 |
| T15I N62D: His-tagged Phi29 polymerase with T15I and background N62D mutation (Table 5 r22) | 0.0 | 105.9 | 0.726 | – | – | – | – | – | – | – | – | – | – | – |
| T15I: His-tagged Phi29 polymerase with T15I mutation only, no background mutation (Table 5 r13) | 3.0 | 416.5 | 0.355 | – | – | – | – | – | – | – | – | – | – | – |
